Patent publication US20030162760A1 (priority 1999, published 2003)
Values after ≈ are worked out from the molar mass of the structure shown. Where two headings read alike, the source gives them in different places.

What was measured:
[1] = test system: hyaluronidase derived from Propionibacterium; assay: Hyaluronidase inhibitory activity, partially purified enzyme, hyaluronic acid substrate; type: biochemical, Propionibacterium acnes JCM6425; settings: for Inhibitory Ratio: P. acnes hyaluronidase, pH 7.0, 30° C., 15 minutes
Experimental: The activity of inhibiting hyaluronidase derived from Propionibacterium of the ascorbic acid-2-phosphate zinc salt, the ascorbic acid-2-phosphate and zinc salt mixture and the ascorbic acid-2-glucoside and zinc salt mixture of the present invention was examined.
(§1) The culture solution of Propionibacterium acnes JCM6425 cultured in the same manner as in Example 7 was dialyzed with 50 mM phosphate buffer, then concentrated to about 1/10 the amount using a membrane having a fraction molecular weight of 10,000 and used as the hyaluronidase partially purified product.
To 1.8 ml of 50 mM HEPES buffer (pH: 7.0) separately placed in a small test tube, 0.2 ml of the […] partially purified product was added and thereto, APZ, AP+Zn and AG+Zn prepared in Examples 1 to 3, APM and AG were added each to have concentrations of 0.1 mg/ml, 1 mg/ml and 10 mg/ml. The reaction was started by addition of a substrate hyaluronic acid at a final concentration of 0.8 mg/ml. The reaction was performed at 30° C. for 15 minutes under shaking. After the shaking, 0.1 ml of 0.2M potassium tetraborate was added, kept at 100° C. for 3 minutes and cooled. To this solution, 3 ml of a paradimethylaminobenzaldehyde reagent (obtained by mixing and dissolving 10 g of dimethylaminobenzaldehyde, 12.5 ml of 10N hydrochloric acid and 77.5 ml of glacial acetic acid) 10 times diluted with glacial acetic acid was added and left standing at 37° C. for 20 minutes to allow reaction with N-acetylglucosamine liberated to proceed and thereby cause coloring. The absorbance at a wavelength of 544 nm was measured and the difference from the absorbance of a control test tube where the substrate was not present was used as the activity. The ratio between activity when a sample was present and activity when the sample was not present was calculated as the inhibitory ratio of each sample and the values obtained were compared.

[2] = test system: Staphylococcus aureus IFO12732 strain; assay: Minimum inhibitory concentration (MIC) against Staphylococcus, turbidity of culture; type: cell-based
Experimental: A platinum-loopful of cells of fresh Staphylococcus aureus IFO12732 strain were inoculated in a test tube containing 5 ml of nutrient broth medium (produced by Difco) previously sterilized and deaerated. […] After the completion of cultivation, the turbidity of the culture solution was measured. The minimum concentration when turbidity was not increased by the cultivation was used as the minimum inhibitory concentration (MIC).

[3] = test system: lipase derived from Propionibacterium; assay: Lipase inhibitory activity (2), partially purified lipase, paranitrophenyl palmitate substrate; type: biochemical, Propionibacterium acnes JCM6425; settings: for Inhibitory Ratio: P. acnes lipase, pH 6.5, 30° C., 120 minutes
Experimental: The activity of inhibiting lipase derived from Propionibacterium of the ascorbic acid-2-phosphate zinc salt, the ascorbic acid-2-phosphate and zinc salt mixture and the ascorbic acid-2-glucoside and zinc salt mixture of the present invention was examined.
as §1, with “an ultrafiltration film” for “a membrane”, “lipase” for “hyaluronidase”
(§2) To 1.9 ml of 50 mM HEPES buffer (pH: 6.5) separately placed in a small test tube, 0.1 ml of the lipase partially purified product was added and thereto, APZ, AP+Zn and AG+Zn prepared in Examples 1 to 3, APM and AG were added each to have concentrations of 0.1 mg/ml, 1 mg/ml and 10 mg/ml. The reaction was started by addition of a substrate paranitrophenyl palmitate at a final concentration of 0.14 mg/ml. The reaction was performed at 30° C. for 120 minutes under shaking. After completion of the reaction, the absorbance at a wavelength of 405 nm was measured and the difference from the absorbance of a control test tube where the substrate was not present was used as the activity. The ratio between activity when a sample was present and activity when the sample was not present was calculated as the inhibitory ratio of each sample and the values obtained were compared.

[4] = test system: Propionibacterium acnes JCM6425 strain; assay: Minimum inhibitory concentration (MIC) against Propionibacterium, turbidity of culture; type: cell-based
Experimental: By the measurement of minimum inhibitory concentration (MIC), the ascorbic acid-2-phosphate zinc salt, the ascorbic acid-2-phosphate and zinc salt mixture and the ascorbic acid-2-glucoside and zinc salt mixture of the present invention were determined on their antibacterial action against Propionibacterium.
A platinum-loopful of cells of fresh Propionibacterium acnes JCM6425 strain were inoculated in a test tube containing 5 ml of GAM broth medium (produced by Nissui K.K.) previously sterilized and deaerated. Thereto, APZ, AP+Zn and AG+Zn prepared as in Examples 1 to 3, APM and AG, each diluted in a common ratio of 2 to have a concentration of from 10 to 0.078 mg/ml, were added and cultured at 35° C. for 72 hours under anaerobic conditions. After completion of cultivation, the test tube was thoroughly shaken and the turbidity of the culture solution was measured. The minimum concentration when the turbidity was not increased by cultivation was used as the minimum inhibitory concentration (MIC).

[5] = test system: Pseudomonas-derived lipase type XIII; assay: Lipase inhibitory activity (1), paranitrophenyl palmitate substrate; type: biochemical; settings: for Inhibitory Ratio: Pseudomonas lipase, pH 7.0, 30° C., 10 minutes
Experimental: The activity of inhibiting lipase derived from Pseudomonas of the ascorbic acid-2-phosphate zinc salt, the ascorbic acid-2-phosphate and zinc salt mixture and the ascorbic acid-2-glucoside and zinc salt mixture of the present invention was examined.
as §2, with “Pseudomonas-derived lipase type XIII (produced by Sigma) was dissolved in 100 mM phosphate buffer (pH: 7.0) to have a final concentration of 43 mU/ml. 2” for “To 1.9”, “the resulting solution was poured” for “50 mM HEPES buffer (pH: 6.5) separately placed”, “tube” for “tube, 0.1 ml of the lipase partially purified product was added”, “prepared as” for “prepared”, “of” for “of 0.1 mg/ml,”, “10” for “120”

| SMILES | hyaluronidase inhibitory activity (in words) ([1]; Propionibacterium-derived hyaluronidase, summary of Table 5) | Inhibitory Ratio ([1]; sample 0.1 mg/ml) | Inhibitory Ratio ([1]; sample 1 mg/ml) | Inhibitory Ratio ([1]; sample 10 mg/ml) | MIC ([2]; Staphylococcus aureus, IFO12732, 48 h) | antibacterial action against Staphylococcus (in words) ([2]; summary of Table 2) | lipase inhibitory activity (in words) ([3]; Propionibacterium-derived lipase, summary of Table 4) | Inhibitory Ratio ([3]; sample 0.1 mg/ml) | Inhibitory Ratio ([3]; sample 1 mg/ml) | Inhibitory Ratio ([3]; sample 10 mg/ml) | MIC ([4]; Cutibacterium acnes, JCM6425, 72 h) | antibacterial activity against Propionibacterium (in words) ([4]; summary of Table 1) | lipase inhibitory activity (in words) ([5]; Pseudomonas-derived lipase, summary of Table 3) | Inhibitory Ratio ([5]; sample 1 mg/ml) | Inhibitory Ratio ([5]; sample 10 mg/ml) | MIC ([2]; Staphylococcus aureus IFO12732, nutrient broth, 35° C., 48 hours, shaking) | MIC ([4]; Propionibacterium acnes JCM6425, GAM broth, 35° C., 72 hours, anaerobic) | MIC ([2]; Staphylococcus aureus IFO12732, nutrient broth, 35° C., 48 hours, shaking, read-out: MIC) | MIC ([4]; Cutibacterium acnes, Propionibacterium acnes JCM6425, GAM broth, 35° C., 72 hours, anaerobic, read-out: MIC) |
| --- | --- | --- | --- | --- | --- | --- | --- | --- | --- | --- | --- | --- | --- | --- | --- | --- | --- | --- | --- |
| O=C1OC(C(O)CO)C2=C1OP(=O)([O][Zn][O]P1(=O)[O][Zn][O]C3=C(O1)C(=O)OC3C(O)CO)[O][Zn][O]2 (centres unmarked) | verified to have strong hyaluronidase inhibitory activity | 80% | 98% | 100% | 625 µg/mL | verified to have antibacterial action | verified to have strong lipase inhibitory activity | 93% | 100% | 100% | 313 µg/mL | verified to have antibacterial activity | verified to have lipase inhibitory activity | 76% | 98% |  |  |  |  |
| O=C1O[C@H]([C@@H](O)CO)C(O)=C1O[C@H]1O[C@H](CO)[C@@H](O)[C@H](O)[C@H]1O [AG, L-ascorbic acid-2-O-glucoside] |  | 10% | 13% | 22% |  |  |  | 0% | 0% | 0% |  |  |  | 0% | 0% | 10000 µg/mL (≈ 29.6 mM) | >10000 µg/mL |  |  |
| O=C1O[C@H]([C@@H](O)CO)C(O)=C1OP(=O)([O-])[O-].[Mg+2] [APM, L-ascorbic acid-2-phosphate magnesium salt] |  | 22% | 32% | 34% |  |  |  | 0% | 0% | 0% |  |  |  | 0% | 0% |  |  | 10000 µg/mL | > 10000 µg/mL |
